The results in this text go back to ChEMBL document CHEMBL1201862, “PubChem BioAssay data set” (2004).

Molecules are shown by their SMILES.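 Five concentrations, 48 hours, 96-well plates. GI50 marks 50% less growth.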 Calls of active or inactive are those of the source. No stated cut-off is given here; in the data, active = GI50 up to about 1.1 µM and inactive = higher.

Test systems include IGROV-1; HCC 2998; A498; HL-60; U-251; UO-31; RPMI-8226; HCT-15; NCI-H23; COLO 205; NCI-H460; SK-OV-3; HOP-62; 786-0; SF-295; HT-29.
Experiment in all cases: inhibition of tumour cell growth, NCI panel, 48 h

Turning to `Nc1ccc(O)c2c1C(=O)c1c(N)ccc(O)c1C2=O`, the GI50 with IGROV-1, with HCC 2998, in the assay on A498, with HL-60, in the assay with U-251 and in the assay on UO-31 was > 100 µM (inactive) each time. Further, the GI50 in the assay on RPMI-8226 was > 100 µM (inactive); with HCT-15, more than 100 µM; with NCI-H23, > 100 µM (inactive); in the assay with COLO 205, > 100 µM (inactive); in the assay on NCI-H460 it was > 100 µM (inactive); with SK-OV-3, > 100 µM (inactive). The GI50 in the assay on HOP-62, in the assay with 786-0 and in the assay with SF-295 was > 100 µM (inactive) each time.

Take `COC(=O)C1CC(C(=O)OC)c2nc3cc(C)c(C)cc3nc21` (stereo not given): the GI50 with HT-29, in the assay on IGROV-1, in the assay on HCC 2998, with A498, in the assay with HL-60 and in the assay with U-251 was > 100 µM (inactive) each time. The GI50 with UO-31 is > 100 µM (inactive); with RPMI-8226 it was > 100 µM (inactive); in the assay with HCT-15 it was more than 100 µM; with NCI-H23 it was > 100 µM (inactive); in the assay with COLO 205 it was > 100 µM (inactive); in the assay on NCI-H460, > 100 µM (inactive). The GI50 with SK-OV-3, in the assay on HOP-62, with 786-0 and in the assay with SF-295 was > 100 µM (inactive) throughout.

Consider `CCOc1ccccc1/N=N/c1ccc2oc(=O)c(C(C)=O)cc2c1`, for which the GI50 in the assay on HT-29 was > 100 µM (inactive); in the assay with IGROV-1, > 100 µM (inactive); with HCC 2998 it was > 100 µM (inactive); with A498 it was > 100 µM (inactive); with HL-60, > 100 µM (inactive); with U-251, 43.7 µM (inactive). In addition, the GI50 was > 100 µM (inactive) with UO-31; > 100 µM (inactive) in the assay with RPMI-8226; more than 100 µM in the assay with HCT-15; > 100 µM (inactive) in the assay on NCI-H23; > 100 µM (inactive) in the assay on COLO 205; > 10 µM (inactive) with NCI-H460. Further, the GI50 was > 100 µM (inactive) with SK-OV-3, > 100 µM (inactive) with HOP-62, 54.6 µM (inactive) in the assay on 786-0 and 41.4 µM (inactive) in the assay on SF-295.

Regarding `Cc1cc(Cl)ccc1NC1=NC(=O)C(CC(=O)Nc2ccc(Cl)cc2Cl)S1` (stereo not given), the GI50 in the assay with HT-29, in the assay on IGROV-1, in the assay with HCC 2998, in the assay on U-251, in the assay on UO-31 and with RPMI-8226 was > 100 µM (inactive) in each case. For the same compound, the GI50 with HCT-15 is more than 100 µM; with NCI-H23, > 100 µM (inactive); with COLO 205 it was > 100 µM (inactive); in the assay on NCI-H460 it was > 100 µM (inactive); in the assay on SK-OV-3 it was > 100 µM (inactive); with HOP-62, > 100 µM (inactive). In addition, the GI50 with 786-0 and in the assay on SF-295 was > 100 µM (inactive) in each case.

`O=C1C2=C(c3ccccc31)C(c1ccc([N+](=O)[O-])cc1)NC(S)=N2` (stereo not given): the GI50 in the assay on HT-29 was > 100 µM (inactive); in the assay with IGROV-1, 50 µM (inactive); in the assay on A498, > 100 µM (inactive); in the assay with HL-60, 35.6 µM (inactive); in the assay on U-251, > 100 µM (inactive); in the assay with UO-31, 31.8 µM (inactive). Besides, the GI50 in the assay on RPMI-8226 is 30.2 µM (inactive); with HCT-15, 51.9 µM; with NCI-H23, 38.5 µM (inactive); in the assay on COLO 205 it was > 100 µM (inactive); in the assay on NCI-H460, 67.8 µM (inactive); with SK-OV-3, > 100 µM (inactive). The GI50 in the assay with HOP-62 is > 100 µM (inactive); in the assay with 786-0, > 100 µM (inactive); in the assay with SF-295, 58.6 µM (inactive).

Take `Nc1ccc2c(c1)C(=O)N(OS(=O)(=O)c1ccccc1)C2=O`: the GI50 was > 100 µM (inactive) in the assay with HT-29; > 100 µM (inactive) in the assay on IGROV-1; > 100 µM (inactive) in the assay on HCC 2998; > 100 µM (inactive) with A498; 46.5 µM (inactive) in the assay with HL-60; > 100 µM (inactive) with U-251. Further, the GI50 in the assay with UO-31 was > 100 µM (inactive); with HCT-15 it was more than 100 µM; with NCI-H23 it was > 100 µM (inactive); in the assay on COLO 205 it was 56.4 µM (inactive); with NCI-H460 it was > 100 µM (inactive); in the assay on SK-OV-3 it was > 100 µM (inactive). The GI50 in the assay on HOP-62, with 786-0 and in the assay on SF-295 was > 100 µM (inactive) each time.

Regarding `O=[N+]([O-])c1cc(-c2nnc(S)[nH]2)ccc1O`, the GI50 with HT-29, in the assay on IGROV-1, in the assay with HCC 2998, with A498, in the assay with HL-60 and with U-251 was > 100 µM (inactive) throughout. Besides, the GI50 was > 100 µM (inactive) with UO-31; 16.5 µM with HCT-15; > 100 µM (inactive) with NCI-H23; 20.1 µM (inactive) with COLO 205; 44.4 µM (inactive) in the assay on NCI-H460; > 100 µM (inactive) in the assay with SK-OV-3. In addition, the GI50 with HOP-62, in the assay with 786-0 and with SF-295 was > 100 µM (inactive) each time.

Turning to `N#CNc1nc(C(=O)Nc2ccc(Cl)cc2)cc(-c2ccccc2)n1`, the GI50 with HT-29, with IGROV-1, with HCC 2998, in the assay on A498, in the assay with HL-60 and with U-251 was > 100 µM (inactive) each time. The GI50 in the assay with UO-31 is > 100 µM (inactive); with RPMI-8226, > 100 µM (inactive); in the assay on HCT-15 it was more than 100 µM; in the assay with NCI-H23 it was > 100 µM (inactive); with HOP-62, > 100 µM (inactive); in the assay with 786-0, > 100 µM (inactive). Besides, the GI50 in the assay on SF-295 is > 100 µM (inactive).

For `O=C(O)C1OC(Oc2cc(O)c3c(=O)cc(-c4ccc(O)cc4)oc3c2)C(O)C(O)C1O` (stereo not given), the GI50 in the assay on HT-29, in the assay with HCC 2998, with HL-60, in the assay on U-251, in the assay on UO-31 and in the assay with NCI-H23 was > 100 µM (inactive) each time. The GI50 with COLO 205 is > 100 µM (inactive); in the assay on NCI-H460 it was > 100 µM (inactive); in the assay with HOP-62, > 100 µM (inactive); with 786-0, 77.3 µM (inactive); with SF-295 it was > 100 µM (inactive).

As to `COc1ccc2nc(-c3cccs3)cc(C(O)CN3CCSCC3)c2c1` (stereo not given), the GI50 in the assay on HT-29 is 25 µM (inactive); in the assay on IGROV-1, 36 µM (inactive); in the assay on HCC 2998, 19.7 µM (inactive); with HL-60, 2.58 µM (inactive); in the assay with U-251, 19.2 µM (inactive); in the assay on UO-31 it was 18.7 µM (inactive). The GI50 is 10.5 µM (inactive) in the assay on RPMI-8226; 16.1 µM with HCT-15; 20.9 µM (inactive) with NCI-H23; 22.9 µM (inactive) with COLO 205; 16.3 µM (inactive) in the assay with NCI-H460; 39.6 µM (inactive) with SK-OV-3. The GI50 in the assay with HOP-62 was 24.2 µM (inactive); in the assay with 786-0 it was 16.8 µM (inactive); with SF-295 it was 27.6 µM (inactive).
